Literature values in patent publication US20100021879A1, “COMPOSITIONS AND METHODS FOR PRESERVING RED BLOOD CELLS” (THE REGENTS OF THE UNIVERSITY OF MICHIGAN, priority 2007, published 2010).

What was measured:
erythrocyte = settings: prior to hemolysis

Compound | red blood cell deformability (red blood cells) | K leak (erythrocyte) | erythrocyte deformability evidenced by ektacytometry (erythrocyte)
CC[N+](CC)(CC)CC [TEA] | increased deformability | – | –
OCl [hypochlorous acid] | – | increase in K leak | changes in erythrocyte deformability
